Assay results reported in patent US6451802B1, “S-oxide lipid lowering compounds” (Janssen Pharmaceutica N.V., priority 1998, dated 2002).

How the values were obtained:
[1] = tested on: HepG2 cells; assay: Quantification of the secretion of ApoB in HepG2 cells; format: cell-based; conditions: 24 hours of incubation, calculated by non-linear regression analysis
Protocol: HepG2 cells were cultured in 24-well plates in MEM Rega 3 containing 10% fetal calf serum. At 70% confluency, the medium was changed and the test compound or carrier (DMSO, 0.4% final concentration) was added. After 24 hours of incubation, the medium was transferred to Eppendorf tubes and cleared by centrifugation. A sheep antibody directed against either apoB was added to the supernatant and the mixture was kept at 8° C. for 24 hours. Then, rabbit anti-sheep antibody was added and the immune complex was allowed to precipitate for 24 hours at 8° C. The immunoprecipitate was pelleted by centrifugation for 25 min at 1320 g and washed twice with a buffer containing 40 mM Mops, 40 mM NaH2PO4, 100 mM NaF, 0.2 mM DTT, 5 mM EDTA, 5 mM EGTA, 1% Triton-X-100, 0.5% sodium deoxycholate (DOC), 0.1% SDS, 0.2 μM leupeptin and 0.2 μM PMSF. Radioactivity in the pellet was quantified by liquid scintillation counting. Resulting IC50 values are enumerated in Table C. 1.

[2] = Plasma levels in a clinical trial on human volunteers; format: in vivo; conditions: for share of the total AUC, compounds 1, 2 and 3 together: one value for the three compounds combined
Description: Plasma levels of compounds 1, 2 and 3 and of compound A have been measured in a clinical trial on human volunteers.

[3] = molecular target: T1, Dog MTP (Canis lupus familiaris, UniProt A0A8I3S8Z7); assay: MTP assay (triglyceride transfer from donor to acceptor vesicles); format: biochemical; conditions: drug concentration that corresponds with 50% of control values
T1 sequence (A0A8I3S8Z7 18-893): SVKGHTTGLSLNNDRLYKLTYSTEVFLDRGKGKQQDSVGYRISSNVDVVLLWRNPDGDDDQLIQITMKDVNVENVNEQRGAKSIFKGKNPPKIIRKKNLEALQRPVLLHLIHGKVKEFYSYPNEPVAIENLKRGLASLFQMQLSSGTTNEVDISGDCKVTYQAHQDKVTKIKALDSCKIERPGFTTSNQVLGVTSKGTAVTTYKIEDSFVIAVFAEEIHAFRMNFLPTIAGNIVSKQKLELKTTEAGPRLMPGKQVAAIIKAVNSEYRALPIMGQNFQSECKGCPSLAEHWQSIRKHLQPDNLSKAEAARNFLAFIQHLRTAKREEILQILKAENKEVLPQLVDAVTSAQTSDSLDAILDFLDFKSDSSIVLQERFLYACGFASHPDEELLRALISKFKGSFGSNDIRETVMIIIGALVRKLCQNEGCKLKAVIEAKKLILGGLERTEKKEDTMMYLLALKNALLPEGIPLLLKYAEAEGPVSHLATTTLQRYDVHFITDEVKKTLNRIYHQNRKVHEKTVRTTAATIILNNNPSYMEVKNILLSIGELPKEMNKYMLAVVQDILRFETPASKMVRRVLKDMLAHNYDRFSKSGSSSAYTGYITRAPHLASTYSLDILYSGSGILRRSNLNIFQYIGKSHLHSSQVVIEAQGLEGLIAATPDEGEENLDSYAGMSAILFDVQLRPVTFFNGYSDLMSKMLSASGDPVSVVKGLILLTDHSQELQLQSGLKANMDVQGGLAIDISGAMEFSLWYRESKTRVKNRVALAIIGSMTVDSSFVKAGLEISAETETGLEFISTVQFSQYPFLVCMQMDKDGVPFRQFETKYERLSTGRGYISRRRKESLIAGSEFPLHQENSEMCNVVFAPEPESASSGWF
Protocol: MTP activity was measured using an assay similar to one described by J. R. Wetterau and D. B. Zilversmit in Chemistry and Physics of Lipids, 38, 205-222 (1985). To prepare the donor and acceptor vesicles, the appropriate lipids in chloroform were put into a glass test tube and dried under a stream of N2. A buffer containing 15 mM Tris-HCl pH 7.5, 1 mM EDTA, 40 mM NaCl, 0.02% NaN3 (assay buffer) was added to the dried lipid. The mixture was vortexed briefly and the lipids were then allowed to hydrate for 20 min on ice. Vesicles were then prepared by bath sonication (Branson 2200) at room temperature for maximum 15 min. Butylated hydroxytoluene was included in all vesicle preparations at a concentration of 0.1%. The lipid transfer assay mixture contained donor vesicles (40 nmol phosphatidylcholine, 7.5 mol % of cardiolipin and 0.25 mol % glycerol tri [1-^14C]-oleate), acceptor vesicles (240 nmol phosphatidylcholine) and 5 mg BSA in a total volume of 675 μl in a 1.5 ml microcentrifuge tube. Test compounds were added dissolved in DMSO (0.13% final concentration). After 5 minutes of pre-incubation at 37° C., the reaction was started by the addition of MTP in 100 μl dialysis buffer. The reaction was stopped by the addition of 400 μl DEAE-52 cellulose pre-equilibrated in 15 mM Tris-HCI pH 7.5, 1 mM EDTA, 0.02% NaN3 (1:1, vol/vol). The mixture was agitated for 4 min and centrifuged for 2 min at maximum speed in an Eppendorf centrifuge (4° C.) to pellet the DEAE-52-bound donor vesicles. An aliquot of the supernatant containing the acceptor liposomes was counted and the [^14C]-counts were used to calculate the percent triglyceride transfer from donor to acceptor vesicles. Resulting IC50 values are enumerated in Table C.1.

[4] = human volunteers, single 200 mg dose administration of compound A

SMILES | IC50 ([1]; Homo sapiens, HepG2, 24 h) [nM] | clearance compared with compound A ([2]; human volunteers) | share of the total AUC, compounds 1, 2 and 3 together [2, 4] [%] | IC50 [3] [nM] | IC50 [1] [nM] | share of the total AUC (Area Under the Curve) [2, 4] [%] | metabolisation on passing the liver (first-pass) ([2]; human, in vivo)
CCC(C)n1ncn(-c2ccc(N3CCN(c4ccc(OC[C@@H]5CO[C@@](CS(=O)(=O)c6nncn6C)(c6ccc(Cl)cc6)O5)cc4)CC3)cc2)c1=O (relative stereo) [Compound 1, [2S-[2α,4α(S*)]]-4-[4-[4-[4-[[2-(4-chloropheny)-2-[[(4-methyl-4H-1,2,4-triazol-3-yl)sulfonyl]methyl]-1,3-dioxlan-4-yl]methoxy]phenyl]-1-piperazinyl]phenyl]-2,4-dihydro-2-(1-methylpropyl)-3H-1,2,4-triazol-3-one] | 61 | slower than clearance of compound A | 92 | 6.2 |  |  | 
CCC(C)n1ncn(-c2ccc(N3CCN(c4ccc(OCC5COC(C[S+]([O-])c6nncn6C)(c6ccc(Cl)cc6)O5)cc4)CC3)cc2)c1=O (single isomer, unassigned) [Compound 2] |  | slower than clearance of compound A | 92 | 118 | 930 |  | 
CCC(C)n1ncn(-c2ccc(N3CCN(c4ccc(OCC5COC(C[S+]([O-])c6nncn6C)(c6ccc(Cl)cc6)O5)cc4)CC3)cc2)c1=O (single isomer, unassigned) [Compound 3, [2S-[2α(B),4α(S*)]]-4-[4-[4-[4-[[2-(4-chlorophenyl)-2-[[(4-methyl-4H-1,2,4-traizol-3yl]sulfinyl]methyl]-1,3-dioxolan-4-yl]methoxy]phenyl]-1-piperazinyl]Phenyl-2,4-dihydro-2-(1-methylpropyl)-3H-1,2,4-traizol-3-one] |  | slower than clearance of compound A | 92 | 11 | 94 |  | 
CC[C@@H](C)n1ncn(-c2ccc(N3CCN(c4ccc(OC[C@@H]5CO[C@@](CSc6nncn6C)(c6ccc(Cl)cc6)O5)cc4)CC3)cc2)c1=O [compound A, (−)-[2S-[2α,4α(S*)]]-4-[4-[4-[4-[[-2-(4-chlorophenyl)-2-[[(4-methyl-4H-1,2,4-triazol-3-yl)thio]methyl]-1,3-dioxolan-4-yl]methoxy]phenyl]-1-piperazinyl]phenyl]-2,4-dihydro-2-(1-methylpropyl)-3H-1,2,4-triazol-3-one, reference compound] | 25 |  |  | 7.6 |  | 8 | extensive metabolisation
